pIC50: −log10 of the molar value.
Legend:
[1] = Fraction unbound in monkey plasma at 1 uM after 5 hrs by rapid equilibrium dialysis based LC-MS/MS analysis; assay type: ADME, cell-free, Macaca mulatta; details: rhesus monkey
Cytochrome P450 1A2 = molecular target: T1, Cytochrome P450 1A2 (Homo sapiens, UniProt P05177); experiment: Inhibition of CYP1A2 in human liver microsomes after 5 mins in presence of NADPH by LC-MS/MS analysis; assay type: ADME
T1 sequence (P05177 whole entry): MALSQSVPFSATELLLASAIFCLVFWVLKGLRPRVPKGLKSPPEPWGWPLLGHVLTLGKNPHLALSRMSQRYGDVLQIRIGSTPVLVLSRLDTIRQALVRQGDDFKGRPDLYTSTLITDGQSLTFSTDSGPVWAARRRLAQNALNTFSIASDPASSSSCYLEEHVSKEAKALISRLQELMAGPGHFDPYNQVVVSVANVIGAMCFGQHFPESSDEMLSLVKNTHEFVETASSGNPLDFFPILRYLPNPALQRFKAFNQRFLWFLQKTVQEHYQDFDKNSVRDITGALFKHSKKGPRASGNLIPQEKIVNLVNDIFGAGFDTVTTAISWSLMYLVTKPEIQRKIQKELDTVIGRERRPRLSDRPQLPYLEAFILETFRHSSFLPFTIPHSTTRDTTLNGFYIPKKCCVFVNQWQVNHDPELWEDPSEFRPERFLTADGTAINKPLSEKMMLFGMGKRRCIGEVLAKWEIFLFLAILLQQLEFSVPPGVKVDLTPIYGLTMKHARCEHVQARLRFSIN

[2] = Cmax in CD-1 mouse plasma at 5 mg/kg administered via oral gavage measured 24 hrs post dose by LC/MS/MS analysis; assay type: ADME, organism-based; set-up: dose 5 mg/kg, route oral
[3] = Volume of distribution at steady state in CD-1 mouse plasma at 1 mg/kg, iv measured 24 hrs post dose by LC/MS/MS analysis; assay type: ADME, organism-based; details: read-out: Vdss
[4] = Cmax in Sprague-Dawley rat plasma at 5 mg/kg administered via oral gavage measured 24 hrs post dose by LC/MS/MS analysis; assay type: ADME, organism-based; set-up: dose 5 mg/kg, route oral
[5] = Cmax in Beagle dog plasma at […] administered via oral gavage measured 24 hrs post dose by LC/MS/MS analysis; assay type: ADME, organism-based, Canis lupus familiaris; set-up: dose 2.5 mg/kg, route oral
[6] = Clearance in cynomolgus monkey plasma at 0.5 mg/kg, iv measured 24 hrs post dose by LC/MS/MS analysis; assay type: ADME, organism-based, Macaca fascicularis
[7] = Volume of distribution at steady state in cynomolgus monkey plasma at 0.5 mg/kg, iv measured 24 hrs post dose by LC/MS/MS analysis; assay type: ADME, organism-based, Macaca fascicularis; details: read-out: Vdss

SMILES: C[C@H](NC(=O)c1c(N)nn2cccnc12)c1cc2cccc(C#Cc3cnn(C)c3)c2c(=O)n1-c1ccccc1 [EGANELISIB]
- fraction unbound at 5 h, 1 µM [1]: 0.04
- pIC50 (Cytochrome P450 1A2): < 4.70
- Cmax [2]: 3600 nM
- Vd [3]: 0.8 L/kg
- Cmax [4]: 2000 nM
- Cmax at 24 h [5]: 1900 nM
- clearance [6]: 4.3 mL/min/kg
- Vd [7]: 1.3 L/kg

Reference: ChEMBL document CHEMBL3853350 (ACS Med Chem Lett, 2016)
